The results in this text go back to patent publication US5438052A, “Cephalosporin derivatives” (Hoffmann-La Roche Inc., priority 1991, dated 1995).

In brackets after ≈: the same amount, converted by molar mass.

One assay relates to C. freundii 902. Nature of the assay: Minimum inhibitory concentration in vitro, agar dilution method. It is filed as cell-based. The conditions noted are these: Citrobacter freundii; C. freundii 902, agar dilution; read-out: MIC. The text has this: (§1) 1. Minimum Inhibitory Concentration in vitro
(§2) The activities ascertained, minimum inhibitory concentration (MIC) in μg/ml, are compiled in Table 1 hereinafter: […]
(In general: Agar dilution tests growth on a series of plates holding different concentrations.)

The subject of a further assay is E. aerogenes CF153. Described as above. To be noted: Klebsiella aerogenes; E. aerogenes CF153, agar dilution; read-out: MIC. It is filed as cell-based.
From the text: as §1, §2

Another assay concerns E. cloacae 908R. The assay is described as above. It is filed as cell-based. The conditions noted are these: Enterobacter cloacae; E. cloacae 908R, agar dilution; read-out: MIC.
From the text: as §1, §2

Another assay concerns E. cloacae 908SSi. Described as above. The conditions noted are these: Enterobacter cloacae; E. cloacae 908SSi, agar dilution; read-out: MIC. It counts as cell-based.
From the text: as §1, §2

For the next assay, the system named is E. cloacae P99. Described as above. It counts as cell-based. To be noted: Enterobacter cloacae.
From the text: as §1, §2

Assay [1] deals with E. coli 25922. The assay is described as above. It is filed as cell-based. The conditions noted are these: Escherichia coli; E. coli 25922, agar dilution; read-out: MIC.
From the text: as §1, §2

For the next assay, the system named is K. oxytoca 1082. The assay is described as above. It counts as cell-based. The conditions noted are these: Klebsiella oxytoca; K. oxytoca 1082, agar dilution; read-out: MIC.
From the text: as §1, §2

In a further assay the test system is K. pneumoniae 418. The description is as above. It counts as cell-based. The conditions noted are these: Klebsiella pneumoniae; K. pneumoniae 418, agar dilution; read-out: MIC.
From the text: as §1, §2

Another assay deals with P. aeruginosa 27853. The description is as above. It is filed as cell-based. To be noted: Pseudomonas aeruginosa; P. aeruginosa 27853, agar dilution; read-out: MIC.
From the text: as §1, §2

In another assay the test system is P. aeruginosa 799/61. The description is as above. To be noted: Pseudomonas aeruginosa; P. aeruginosa 799/61, agar dilution; read-out: MIC. It is filed as cell-based.
From the text: as §1, §2

The subject of a further assay is P. aeruginosa 799/WT. The description is as above. It counts as cell-based. The conditions noted are these: Pseudomonas aeruginosa; P. aeruginosa 799/WT, agar dilution; read-out: MIC.
From the text: as §1, §2

The subject of a further assay is P. aeruginosa BA. The assay is described as above. To be noted: Pseudomonas aeruginosa; P. aeruginosa BA, agar dilution; read-out: MIC. It is filed as cell-based.
From the text: as §1, §2

The next assay concerns P. aeruginosa MK1184. The description is as above. It counts as cell-based. The conditions noted are these: Pseudomonas aeruginosa; P. aeruginosa MK1184, agar dilution; read-out: MIC.
From the text: as §1, §2

Another assay has as its system P. mirabilis 2117. The assay is described as above. It is filed as cell-based. The conditions noted are these: Proteus mirabilis; P. mirabilis 2117, agar dilution; read-out: MIC.
From the text: as §1, §2

The subject of a further assay is P. vulgaris 1028. Described as above. It counts as cell-based. To be noted: Proteus vulgaris; P. vulgaris 1028, agar dilution; read-out: MIC.
From the text: as §1, §2

In a further assay the test system is S. aureus 6538. The assay is described as above. It counts as cell-based. To be noted: Staphylococcus aureus; S. aureus 6538, agar dilution; read-out: MIC.
From the text: as §1, §2

The test system of a further assay is S. marcescens 69438. The assay is described as above. It is filed as cell-based. To be noted: Serratia marcescens; S. marcescens 69438, agar dilution; read-out: MIC.
From the text: as §1, §2

The test system of the next assay is S. pyogenes 15. The assay is described as above. The conditions noted are these: Streptococcus pyogenes; S. pyogenes 15, agar dilution; read-out: MIC. It counts as cell-based.
From the text: as §1, §2

In assay [2] the test system is E. coli 25922. Nature of the assay: Experimental systemic septicaemia in the mouse. The conditions noted are these: Escherichia coli, sc, 96 h; E. coli 25922, albino mice, s.c. 1 and 3 hours after infection, survival after 4 days; read-out: ED50. It is filed as in vivo. A digest of the protocol: (§3)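 Albino mice (16-20 g) infected i.p. with overnight culture at about 5-100× the 48 h LD50; groups of 5. Compounds given s.c. in 2% Tween 80 at 1 and 3 h post-infection (P. aeruginosa also at 5 h). ED50 (mg/kg s.c.) by Probit from 4-day survival.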

Assay [3] deals with Pseudomonas aeruginosa BA. Nature of the assay: Experimental systemic septicaemia in the mouse. It is filed as in vivo. The conditions noted are these: sc, 96 h, P. aeruginosa BA, albino mice, s.c. 1, 3 and 5 hours after infection, survival after 4 days, read-out: ED50. A digest of the protocol: as §3

`Nc1nc(/C(=N/OCc2ccc(O)c(O)c2F)C(=O)N[C@@H]2C(=O)N3C(C(=O)O)=C(CSc4nc(-c5ccccc5)ncc4-c4ccc(O)c(O)c4)CS[C@H]23)cs1` [Example 15]: the MIC was 0.25 mg/L (≈ 0.306 µM) with C. freundii 902; 0.12 mg/L (≈ 0.147 µM) in the assay with E. aerogenes CF153; 2 mg/L (≈ 2.45 µM) in the assay on E. cloacae 908R; 16 mg/L (≈ 19.6 µM) in the assay with E. cloacae 908SSi; 16 mg/L (≈ 19.6 µM) against E. cloacae P99; < 0.1 mg/L in the assay with E. coli 25922 [1]. The MIC is 0.5 mg/L (≈ 0.611 µM) in the assay on K. oxytoca 1082; < 0.1 mg/L with K. pneumoniae 418; 1 mg/L (≈ 1.22 µM) in the assay with P. aeruginosa 27853; < 0.1 mg/L in the assay with P. aeruginosa 799/61; 0.5 mg/L (≈ 0.611 µM) with P. aeruginosa 799/WT; 0.5 mg/L (≈ 0.611 µM) with P. aeruginosa BA. Also, the MIC with P. aeruginosa MK1184 worked out at 32 mg/L (≈ 39.1 µM); in the assay with P. mirabilis 2117, 0.12 mg/L (≈ 0.147 µM); with P. vulgaris 1028, 0.5 mg/L (≈ 0.611 µM); in the assay with S. aureus 6538 it was 32 mg/L (≈ 39.1 µM); in the assay with S. marcescens 69438, 1 mg/L (≈ 1.22 µM); in the assay with S. pyogenes 15, 0.12 mg/L (≈ 0.147 µM). Moreover, the ED50 in the assay with E. coli 25922 [2] was 0.9 mg/kg; in assay [3], > 2 mg/kg.
As to `Nc1nc(/C(=N/OCc2nc(=O)c(O)c[nH]2)C(=O)N[C@@H]2C(=O)N3C(C(=O)O)=C(CSc4nc(-c5ccccc5)ncc4-c4ccc(O)c(O)c4)CS[C@H]23)cs1` [Example 16, (6R,7R)-7-[(Z)-2-(2-amino-4-thiazolyl)-2-[[(1,4-dihydro-5-hydroxy-4-oxo-2-pyrimidinyl)methoxy]imino]acetamido]-3-[[[5-(3,4-dihydroxyphenyl)-2-phenyl-4-pyrimidinyl]thio]methyl]-8-oxo-5-thia-1-azabicyclo[4.2.0]oct-2-ene-2-carboxylic acid], the MIC in the assay with C. freundii 902 was 0.12 mg/L (≈ 0.15 µM); in the assay on E. aerogenes CF153 it was 0.12 mg/L (≈ 0.15 µM); with E. cloacae 908R, 0.25 mg/L (≈ 0.312 µM); with E. cloacae 908SSi, 8 mg/L (≈ 9.98 µM); in the assay on E. cloacae P99 it was 8 mg/L (≈ 9.98 µM); in the assay with E. coli 25922 [1], < 0.1 mg/L. Besides, the minimal inhibitory concentration (MIC) was 0.25 mg/L (≈ 0.312 µM) in the assay on K. oxytoca 1082; < 0.1 mg/L in the assay with K. pneumoniae 418; 1 mg/L (≈ 1.25 µM) in the assay with P. aeruginosa 27853; < 0.1 mg/L in the assay on P. aeruginosa 799/61; 0.5 mg/L (≈ 0.624 µM) in the assay on P. aeruginosa 799/WT; 4 mg/L (≈ 4.99 µM) in the assay with P. aeruginosa BA. Besides, the MIC with P. aeruginosa MK1184 is > 32 mg/L; in the assay with P. mirabilis 2117, 0.25 mg/L (≈ 0.312 µM); with P. vulgaris 1028 it was 0.25 mg/L (≈ 0.312 µM); with S. aureus 6538, 32 mg/L (≈ 39.9 µM); with S. marcescens 69438 it was 1 mg/L (≈ 1.25 µM); in the assay on S. pyogenes 15, 0.25 mg/L (≈ 0.312 µM). For the same compound, the results for the ED50 (in the assay on E. coli 25922 [2]; in assay [3]) were < 0.5 mg/kg and > 2 mg/kg, respectively.
Turning to `Cc1ncc(-c2ccc(O)c(O)c2)c(SCC2=C(C(=O)O)N3C(=O)[C@@H](NC(=O)/C(=N\OC(C)(C)C(=O)NO)c4csc(N)n4)[C@H]3SC2)n1` [Example 19b], the minimal inhibitory concentration (MIC) with C. freundii 902 is < 0.1 mg/L; in the assay on E. aerogenes CF153, < 0.1 mg/L; in the assay with E. cloacae 908R, 2 mg/L (≈ 2.79 µM); in the assay with E. cloacae 908SSi, 2 mg/L (≈ 2.79 µM); against E. cloacae P99 it was 8 mg/L (≈ 11.2 µM); in the assay with E. coli 25922 [1] it was < 0.1 mg/L. For the same compound, the MIC is 0.5 mg/L (≈ 0.698 µM) in the assay on K. oxytoca 1082; < 0.1 mg/L in the assay with K. pneumoniae 418; 0.25 mg/L (≈ 0.349 µM) in the assay on P. aeruginosa 27853; < 0.1 mg/L in the assay on P. aeruginosa 799/61; 0.25 mg/L (≈ 0.349 µM) in the assay on P. aeruginosa 799/WT; 0.5 mg/L (≈ 0.698 µM) in the assay with P. aeruginosa BA. In addition, the minimum inhibitory concentration (MIC) with P. aeruginosa MK1184 is 8 mg/L (≈ 11.2 µM); in the assay with P. mirabilis 2117 it was 0.25 mg/L (≈ 0.349 µM); in the assay with P. vulgaris 1028, < 0.1 mg/L; in the assay with S. aureus 6538, 16 mg/L (≈ 22.3 µM); in the assay with S. marcescens 69438, < 0.1 mg/L; in the assay on S. pyogenes 15 it was 0.25 mg/L (≈ 0.349 µM). For the same compound, the ED50 with E. coli 25922 [2] was 0.78 mg/kg; in [3], > 3 mg/kg.

Broadly, the MIC is the smallest concentration in the dilution series that meets the test's criterion for growth inhibition. One may read the ED50 as the dose at which the effect has come halfway, by size or by number of responders.
